Assay results published in patent US20150086490A1, “ORAL CARE COMPOSITIONS AND METHODS” (Colgate-Palmolive Company, priority 2009, published 2015).

System: MMP-13 gene expression
Test: PTH stimulated MMP-13 gene expression in UMR 106-01 cells, real time quantitative RT-PCR
Type: cell-based, rat
Details: for effect on PTH stimulated MMP-13 gene expression (in words): summary of the table's results
Method: Parathyroid hormone (PTH) stimulates the transcription of MMP-13. The experimental method utilizes PTH to stimulate MMP-13 transcription in UMR 106-01 cells, which are cells derived from a rat osteoblastic cell line. The UMR 106-01 cell line provides useful model system for studying effects of PTH on osteoblasts in vitro. See, e.g., Qin, L. et al. Journal of Biological Chemistry, 278(22), 19723 (2003).
The UMR 106-01 cells were cultured in Eagle's minimal essential medium (EMEM) supplemented with 25 mM Hepes 7.4, 1% nonessential amino acids, 100 units/ml penicillin, 100 μg/ml streptomycin and 5% fetal bovine serum.
UMR 106-01 cells were seeded in 12-well plates and cultured for 2-3 days in cell culture media. When cells were confluent, the cell culture media was changed to 1% fetal bovine serum (not 5% fetal bovine sertn) for overnight cell starvation. The cells were preincubated with active ingredient for 15 min and then incubated with PTH (10^−8 M) for 4 hours.
Total RNA from UMR 106-01 cells stimulated with or without PTH was isolated with TRIzol reagent. Total RNA (0.1 μg) was reverse-transcribed to cDNA with the Invitrogen Superscript kit according to the manufacturer's instructions. PCR was performed on cDNA using primers, and the sequences used are listed below. All were amplified by adding 2.5 μl of cDNA to the PCR mixture (22.5 μl) containing each primer (0.2 μM) and 12.5 μl of the Platinum SYBR Green qPCR SuperMix UDG (Invitrogen). The reactions were pre-incubated at 50° C. for 2 minutes for decontamination of dU-containing DNA by UDG, then at 95° C. for 2 minutes to inactivate UDG and activate Taq. The PCR program continued for 49 cycles of denaturation at 95° C. for 15 seconds, annealing and elongation of the primers at 60° C. for 30 seconds. Relative quantification of gene expression was determined by using the 2-delta delta CT method where fold changes in gene expression are relative to control samples. All samples were normalized to β-actin.

[1] = PTH (10^−8 M, 4 hours) + active 10 ppm (15 min preincubation)
[2] = active alone (no PTH), 10 ppm in simple solution

## CC(=O)O[C@@H]1CC[C@@]2(C)[C@@H](CC[C@]3(C)[C@@H]2C(=O)C=C2[C@@H]4[C@@H](C)[C@H](C)CC[C@]4(C)CC[C@]23C)[C@@]1(C)C(=O)O [AKBBA, Acetyl keto β-boswellic acid]
[1]
  fold change in MMP-13 gene expression relative to the control sample, Average: 59.77 fold
[2]
  fold change in MMP-13 gene expression relative to the control sample, Average: 1.45 fold
  effect on PTH stimulated MMP-13 gene expression (in words): decreases the expression

## CC(=O)Nc1ccc(OC(=O)OC2CC(C)CCC2C(C)C)cc1 (centres unmarked) [Compound B, 4-acetamidophenyl 2-isopropyl-5-methylcyclohexyl carbonate]
[1]
  fold change in MMP-13 gene expression relative to the control sample, Average: 49.86 fold
[2]
  fold change in MMP-13 gene expression relative to the control sample, Average: 5.78 fold
  effect on PTH stimulated MMP-13 gene expression (in words): decreases the expression

## CC1CCC(C(C)C)C(OC(=O)Nc2ccccc2O)C1 (centres unmarked) [Compound A, 2-isopropyl-5-methylcyclohexyl 2-hydroxyphenylcarbantate]
PTH (10^−8 M, 4 hours) + active 7 ppm (15 min preincubation)
  fold change in MMP-13 gene expression relative to the control sample, Average: 14.674 fold
Active alone (no PTH), 7 ppm in simple solution
  fold change in MMP-13 gene expression relative to the control sample, Average: 7.41 fold
  effect on PTH stimulated MMP-13 gene expression (in words): decreases the expression

## Oc1ccc(C=Cc2cc(O)cc(O)c2)cc1 [Resveratrol, 3,5,4′-trihydroxystilbene]
PTH (10^−8 M, 4 hours) + active 0.1 ppm (15 min preincubation)
  fold change in MMP-13 gene expression relative to the control sample, Average: 46.02 fold
PTH (10^−8 M, 4 hours) + active 1 ppm (15 min preincubation)
  fold change in MMP-13 gene expression relative to the control sample, Average: 19.97 fold
[1]
  fold change in MMP-13 gene expression relative to the control sample, Average: 1.86 fold
PTH (10^−8 M, 4 hours) + active 50 ppm (15 min preincubation)
  fold change in MMP-13 gene expression relative to the control sample, Average: 0.91 fold
PTH (10^−8 M, 4 hours) + active 100 ppm (15 min preincubation)
  fold change in MMP-13 gene expression relative to the control sample, Average: 0.65 fold
Active alone (no PTH), 0.1 ppm in simple solution
  fold change in MMP-13 gene expression relative to the control sample, Average: 1.07 fold
Active alone (no PTH), 1 ppm in simple solution
  fold change in MMP-13 gene expression relative to the control sample, Average: 0.71 fold
[2]
  fold change in MMP-13 gene expression relative to the control sample, Average: 0.65 fold
Active alone (no PTH), 50 ppm in simple solution
  fold change in MMP-13 gene expression relative to the control sample, Average: 0.38 fold
Active alone (no PTH), 100 ppm in simple solution
  fold change in MMP-13 gene expression relative to the control sample, Average: 1.09 fold
  effect on PTH stimulated MMP-13 gene expression (in words): decreases the expression
